Results published in the supplement of paper PMC10627819.

Key:
S. aureus DSM 20231 [1] = experiment: Bliss interaction score (quartile over a dose matrix) (fitness difference); higher = more antagonism (negative = synergy)
How it was run: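 Quartiles of the Bliss score were taken over technical, biological and donor/recipient replicates. That score is observed fitness minus the product of the single-drug fitness values, which were inferred from combination data. Fitness itself is OD595 at entry into stationary phase divided by the plate's robust no-drug mean, with a cap at 1.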

B. subtilis 168 = experiment: fitness (endpoint OD595 vs no drug) (fraction); higher = more growth
How it was run: (§1)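 Volumes were 30 µl per well, or 55 µl for S. pneumoniae, in 384-well plates inoculated at OD595 0.01. Media were TSB, LB Lennox or CY at 37 °C, and OD595 was read every 30 min for 14 h with first-reading background subtraction. Fitness is the ratio of optical density at stationary-phase entry to the robust mean of no-drug controls. That ratio is capped at 1.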

S. aureus DSM 20231 [2] = experiment: as above
How it was run: as §1

S. aureus Newman = experiment: as above
How it was run: as §1

[3] = first compound 0.375 µg/mL, partner 0.0156 µg/mL
[4] = first compound 0.375 µg/mL, partner 0.0312 µg/mL
[5] = first compound 0.375 µg/mL, partner 0.0625 µg/mL
[6] = first compound 0.75 µg/mL, partner 0.0156 µg/mL
[7] = first compound 0.75 µg/mL, partner 0.0312 µg/mL
[8] = first compound 0.75 µg/mL, partner 0.0625 µg/mL
[9] = first compound 1.5 µg/mL, partner 0.0156 µg/mL
[10] = first compound 1.5 µg/mL, partner 0.0312 µg/mL
[11] = first compound 1.5 µg/mL, partner 0.0625 µg/mL
[12] = first compound 0.375 µg/mL, partner 12.5 µg/mL
[13] = first compound 0.375 µg/mL, partner 25 µg/mL
[14] = first compound 0.375 µg/mL, partner 50 µg/mL
[15] = first compound 0.75 µg/mL, partner 12.5 µg/mL
[16] = first compound 0.75 µg/mL, partner 25 µg/mL
[17] = first compound 1.5 µg/mL, partner 12.5 µg/mL
[18] = first compound 1.5 µg/mL, partner 25 µg/mL
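For Bliss interaction score (quartile over a dose matrix) in this document: first quartile when negative (synergy) and third quartile when positive (antagonism).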

`CCC[C@@H]1C[C@@H](C(=O)N[C@@H]([C@H]2O[C@H](SC)[C@H](O)[C@@H](O)[C@H]2O)[C@H](C)Cl)N(C)C1` [Clindamycin] + C[C@H]1C[C@@H]2[C@H]([C@@H](O)C[C@@]3(C)[C@H]2CC[C@]3(O)C(=O)CO)[C@@]2(C)C=CC(=O)C=C12 [Methylprednisolone] gave a Bliss interaction score (S. aureus DSM 20231 [1]) of -0.274.
Compound `CCC[C@@H]1C[C@@H](C(=O)N[C@@H]([C@H]2O[C@H](SC)[C@H](O)[C@@H](O)[C@H]2O)[C@H](C)Cl)N(C)C1` [Clindamycin] + Cc1c(Cl)cccc1Nc1ccccc1C(=O)O [Tolfenamic] has a Bliss interaction score (S. aureus DSM 20231 [1]) of -0.169.
In the case of `CCC[C@@H]1C[C@@H](C(=O)N[C@@H]([C@H]2O[C@H](SC)[C@H](O)[C@@H](O)[C@H]2O)[C@H](C)Cl)N(C)C1` [Clindamycin] + Cc1ccc(C(C)C)c(O)c1 [Thymol], the Bliss interaction score (S. aureus DSM 20231 [1]) is reported as -0.271.
With `CCC[C@@H]1C[C@@H](C(=O)N[C@@H]([C@H]2O[C@H](SC)[C@H](O)[C@@H](O)[C@H]2O)[C@H](C)Cl)N(C)C1` [Clindamycin] + Nc1ccc(O)c(C(=O)O)c1 [Mesalamine] the Bliss interaction score (S. aureus DSM 20231 [1]) was -0.165.
Work on `CCC[C@@H]1C[C@@H](C(=O)N[C@@H]([C@H]2O[C@H](SC)[C@H](O)[C@@H](O)[C@H]2O)[C@H](C)Cl)N(C)C1` [Clindamycin] + O=C(O)Cc1cc(I)c(Oc2ccc(O)c(I)c2)c(I)c1 [Tiratricol] yielded a Bliss interaction score (S. aureus DSM 20231 [1]) of 0.278.
`CCN(CC)CCOc1ccc(C(=C(Cl)c2ccccc2)c2ccccc2)cc1` [Clomiphene] + CCC(C)C1C(=O)NC(=C)C(=O)NC(C(=O)NC(CSCC(C(=O)N1)NC(=O)/C(=C/C)/NC(=O)C(C(C)CC)N)C(=O)NC2C(SCC(NC(=O)CNC(=O)C3CCCN3C2=O)C(=O)NC(CCCCN)C(=O)NC4C(SCC(NC(=O)CNC(=O)C(NC(=O)C(NC(=O)C(NC(=O)CNC4=O)C)CC(C)C)CCSC)C(=O)NC(CC(=O)N)C(=O)NC(CCSC)C(=O)NC(CCCCN)C(=O)NC5C(SCC6C(=O)NC(C(=O)NC(CSC(C(C(=O)N6)NC(=O)C(NC5=O)C)C)C(=O)NC(CO)C(=O)NC(C(C)CC)C(=O)NC(CC7=CN=CN7)C(=O)NC(C(C)C)C(=O)NC(=C)C(=O)NC(CCCCN)C(=O)O)CC8=CN=CN8)C)C)C)CC(C)C [Nisin] gave a Bliss interaction score (S. aureus DSM 20231 [1]; main component drawn) of -0.384.
`CCN(CC)CCOc1ccc(C(=C(Cl)c2ccccc2)c2ccccc2)cc1` [Clomiphene] + CN[C@@H]1[C@H](O[C@H]2[C@H](O[C@H]3[C@H](O)[C@@H](O)[C@H](N=C(N)N)[C@@H](O)[C@@H]3N=C(N)N)O[C@@H](C)[C@]2(O)C=O)O[C@@H](CO)[C@H](O)[C@H]1O [Streptomycin] was tested, and the Bliss interaction score (S. aureus DSM 20231 [1]) was 0.238.
`CCN(CC)CCOc1ccc(C(=C(Cl)c2ccccc2)c2ccccc2)cc1` [Clomiphene] + COc1cc(Cc2cnc(N)nc2N)cc(OC)c1OC [Trimethoprim] gave a Bliss interaction score (S. aureus DSM 20231 [1]) of 0.216.
`CCN(CC)CCOc1ccc(C(=C(Cl)c2ccccc2)c2ccccc2)cc1` [Clomiphene] + Cn1nnc(-c2ccc(-c3ccc(N4C[C@H](CO)OC4=O)cc3F)cn2)n1 [Tedizolid] was tested, and the Bliss interaction score (S. aureus DSM 20231 [1]) was 0.263.
In the case of `CCN(CC)CCOc1ccc(C(=C(Cl)c2ccccc2)c2ccccc2)cc1` [Clomiphene] + N[C@@H]1CONC1=O [CycloserineD], the Bliss interaction score (S. aureus DSM 20231 [1]) is reported as -0.175.
With `CCN(CC)CCOc1ccc(C(=C(Cl)c2ccccc2)c2ccccc2)cc1` [Clomiphene] + O=C(O[C@@H]1Cc2c(O)cc(O)cc2O[C@@H]1c1cc(O)c(O)c(O)c1)c1cc(O)c(O)c(O)c1 [EGCG] the Bliss interaction score (S. aureus DSM 20231 [1]) was 0.241.
Compound `N[C@@H]1CONC1=O` [Cycloserine D] + Cc1onc(-c2ccccc2)c1C(=O)N[C@@H]1C(=O)N2[C@@H]1SC(C)(C)[C@@H]2C(=O)O [Oxacillin] has a fitness (B. subtilis 168; first compound 0.125 µg/mL, partner 0.002 µg/mL) of 0.973, a fitness (B. subtilis 168; first compound 0.125 µg/mL, partner 0.004 µg/mL) of 0.966 and a fitness (B. subtilis 168; first compound 0.125 µg/mL, partner 0.0078 µg/mL, one replicate) of 0.99. For the same compound, the fitness (B. subtilis 168; first compound 0.125 µg/mL, partner 0.008 µg/mL) was 0.936, the fitness (B. subtilis 168; first compound 0.125 µg/mL, partner 0.0155 µg/mL, one replicate) was 0.909 and the fitness (B. subtilis 168; first compound 0.125 µg/mL, partner 0.031 µg/mL, one replicate) was 0.873. The fitness (B. subtilis 168; first compound 0.125 µg/mL, partner 0.075 µg/mL, one replicate) was 0.526, the fitness (B. subtilis 168; first compound 0.125 µg/mL, partner 0.15 µg/mL, one replicate) was 0.0465 and the fitness (B. subtilis 168; first compound 0.125 µg/mL, partner 0.3 µg/mL, one replicate) was 0.0536. The fitness (B. subtilis 168; first compound 0.25 µg/mL, partner 0.002 µg/mL) was 0.926, the fitness (B. subtilis 168; first compound 0.25 µg/mL, partner 0.004 µg/mL) was 0.887 and the fitness (B. subtilis 168; first compound 0.25 µg/mL, partner 0.0078 µg/mL, one replicate) was 0.937. It also gave a fitness (B. subtilis 168; first compound 0.25 µg/mL, partner 0.008 µg/mL) of 0.892, a fitness (B. subtilis 168; first compound 0.25 µg/mL, partner 0.0155 µg/mL, one replicate) of 0.966 and a fitness (B. subtilis 168; first compound 0.25 µg/mL, partner 0.031 µg/mL, one replicate) of 0.88. For the same compound, the fitness (B. subtilis 168; first compound 0.25 µg/mL, partner 0.075 µg/mL, one replicate) was 0.596, the fitness (B. subtilis 168; first compound 0.25 µg/mL, partner 0.15 µg/mL, one replicate) was 0.0158 and the fitness (B. subtilis 168; first compound 0.25 µg/mL, partner 0.3 µg/mL, one replicate) was 0.0367. The fitness (B. subtilis 168; first compound 0.5 µg/mL, partner 0.002 µg/mL) was 0.906, the fitness (B. subtilis 168; first compound 0.5 µg/mL, partner 0.004 µg/mL) was 0.9 and the fitness (B. subtilis 168; first compound 0.5 µg/mL, partner 0.0078 µg/mL, one replicate) was 0.973. The fitness (B. subtilis 168; first compound 0.5 µg/mL, partner 0.008 µg/mL) was 0.907, the fitness (B. subtilis 168; first compound 0.5 µg/mL, partner 0.0155 µg/mL, one replicate) was ≥ 1 and the fitness (B. subtilis 168; first compound 0.5 µg/mL, partner 0.031 µg/mL, one replicate) was 0.973. For the same compound, the fitness (B. subtilis 168; first compound 0.5 µg/mL, partner 0.075 µg/mL, one replicate) was 0.459, the fitness (B. subtilis 168; first compound 0.5 µg/mL, partner 0.15 µg/mL, one replicate) was 0.0287 and the fitness (B. subtilis 168; first compound 0.5 µg/mL, partner 0.3 µg/mL, one replicate) was 0.0208. It also gave a fitness (S. aureus DSM 20231 [2]; [3]) of 0.878, a fitness (S. aureus DSM 20231 [2]; [4]) of 0.67 and a fitness (S. aureus DSM 20231 [2]; [5]) of 0.506. The fitness (S. aureus DSM 20231 [2]; [6]) was 0.906, the fitness (S. aureus DSM 20231 [2]; [7]) was 0.712 and the fitness (S. aureus DSM 20231 [2]; [8]) was 0.499. The fitness (S. aureus DSM 20231 [2]; [9]) was 0.931, the fitness (S. aureus DSM 20231 [2]; [10]) was 0.656 and the fitness (S. aureus DSM 20231 [2]; [11]) was 0.494. The fitness (S. aureus Newman; [3]) was 0.819, the fitness (S. aureus Newman; [4]) was 0.716 and the fitness (S. aureus Newman; [5]) was 0.611. It also gave a fitness (S. aureus Newman; [6]) of 0.779, a fitness (S. aureus Newman; [7]) of 0.663 and a fitness (S. aureus Newman; [8]) of 0.611. The fitness (S. aureus Newman; [9]) was 0.771, the fitness (S. aureus Newman; [10]) was 0.642 and the fitness (S. aureus Newman; [11]) was 0.579.
`N[C@@H]1CONC1=O` [Cycloserine D] + O=C(O[C@@H]1Cc2c(O)cc(O)cc2O[C@@H]1c1cc(O)c(O)c(O)c1)c1cc(O)c(O)c(O)c1 [EGCG] was tested, and the fitness (B. subtilis 168; first compound 0.125 µg/mL, partner 6.25 µg/mL) was 0.934, the fitness (B. subtilis 168; first compound 0.125 µg/mL, partner 12.5 µg/mL) was 0.567 and the fitness (B. subtilis 168; first compound 0.25 µg/mL, partner 6.25 µg/mL) was 0.898. It also gave a fitness (B. subtilis 168; first compound 0.25 µg/mL, partner 25 µg/mL) of 0.289, a fitness (B. subtilis 168; first compound 0.5 µg/mL, partner 6.25 µg/mL) of 0.938 and a fitness (B. subtilis 168; first compound 0.5 µg/mL, partner 12.5 µg/mL) of 0.443. For the same compound, the fitness (S. aureus DSM 20231 [2]; [12]) was 0.785, the fitness (S. aureus DSM 20231 [2]; [13]) was 0.784 and the fitness (S. aureus DSM 20231 [2]; [14]) was 0.776. For the same compound, the fitness (S. aureus DSM 20231 [2]; [15]) was 0.73, the fitness (S. aureus DSM 20231 [2]; [16]) was 0.772 and the fitness (S. aureus DSM 20231 [2]; [17]) was 0.798. The fitness (S. aureus DSM 20231 [2]; [18]) was 0.663, the fitness (S. aureus Newman; [12]) was 0.77 and the fitness (S. aureus Newman; [13]) was 0.765. For the same compound, the fitness (S. aureus Newman; [14]) was 0.691, the fitness (S. aureus Newman; [15]) was 0.805 and the fitness (S. aureus Newman; [16]) was 0.821. The fitness (S. aureus Newman; first compound 0.75 µg/mL, partner 50 µg/mL) was 0.697, the fitness (S. aureus Newman; [17]) was 0.851 and the fitness (S. aureus Newman; [18]) was 0.779. It also gave a fitness (S. aureus Newman; first compound 1.5 µg/mL, partner 50 µg/mL) of 0.706.
`N[C@@H]1CONC1=O` [CycloserineD] + Cc1c(Cl)cccc1Nc1ccccc1C(=O)O [Tolfenamic] gave a Bliss interaction score (S. aureus DSM 20231 [1]) of -0.218.
Work on `N[C@@H]1CONC1=O` [CycloserineD] + O=C(O)c1cc(-c2ccc(F)cc2F)ccc1O [Diflunisal] yielded a Bliss interaction score (S. aureus DSM 20231 [1]) of -0.151.
Work on `O=C(O[C@@H]1Cc2c(O)cc(O)cc2O[C@@H]1c1cc(O)c(O)c(O)c1)c1cc(O)c(O)c(O)c1` [EGCG] + CN1CCC[C@H]1c1cccnc1 [Nicotine] yielded a Bliss interaction score (S. aureus DSM 20231 [1]) of -0.157.
